# Results from PubChem BioAssay AID2060893 (Molecular Pharmacology Branch, DTP, NCI, 2025).
# Several values for one entry are separate records, joined by “and”; a condition that tells them apart may be missing. Identical values can stand only once.
# Tested on: K86415-001-R-J1-PDC complex spheroids, viability
# Assay: Anticancer human tumor K86415-001-R-J1-PDC patient-derived lung adenocarcinoma cell line growth inhibition [RAS]
# Conditions: for viability, T/C: stronger effect = lower value
# Outline: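 Agents were tested in combination matrices in half-log decrements from a top concentration at or near clinical Cmax (10 microM if undetermined). Targets were multi-cell spheroids of tumour lines plus HUVEC and MSC stromal cells.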
# [1] = curve of first compound, second compound 0.0316 µM
# [2] = curve of first compound, second compound 0.1 µM
# [3] = curve of first compound, second compound 0.316 µM
# [4] = curve of first compound, second compound 1 µM
# [5] = curve of first compound, second compound 3.16 µM
# [6] = curve of first compound, second compound 10 µM
# [7] = second compound 0.0316 µM, first compound 0.0316 µM
# [8] = second compound 0.0316 µM, first compound 0.1 µM
# [9] = second compound 0.0316 µM, first compound 0.316 µM
# [10] = second compound 0.0316 µM, first compound 1 µM
# [11] = second compound 0.1 µM, first compound 0.0316 µM
# [12] = second compound 0.1 µM, first compound 0.1 µM
# [13] = second compound 0.1 µM, first compound 0.316 µM
# [14] = second compound 0.1 µM, first compound 1 µM
# [15] = second compound 0.316 µM, first compound 0.0316 µM
# [16] = second compound 0.316 µM, first compound 0.1 µM
# [17] = second compound 0.316 µM, first compound 0.316 µM
# [18] = second compound 0.316 µM, first compound 1 µM
# [19] = second compound 1 µM, first compound 0.0316 µM
# [20] = second compound 1 µM, first compound 0.1 µM
# [21] = second compound 1 µM, first compound 0.316 µM
# [22] = second compound 1 µM, first compound 1 µM
# [23] = second compound 3.16 µM, first compound 0.0316 µM
# [24] = second compound 3.16 µM, first compound 0.1 µM
# [25] = second compound 3.16 µM, first compound 0.316 µM
# [26] = second compound 3.16 µM, first compound 1 µM
# [27] = second compound 10 µM, first compound 0.0316 µM
# [28] = second compound 10 µM, first compound 0.1 µM
# [29] = second compound 10 µM, first compound 0.316 µM
# [30] = second compound 10 µM, first compound 1 µM
# [31] = second compound 0.0316 µM, first compound 3.16 µM
# [32] = second compound 0.0316 µM, first compound 10 µM
# [33] = second compound 0.1 µM, first compound 3.16 µM
# [34] = second compound 0.1 µM, first compound 10 µM
# [35] = second compound 0.316 µM, first compound 3.16 µM
# [36] = second compound 0.316 µM, first compound 10 µM
# [37] = second compound 1 µM, first compound 3.16 µM
# [38] = second compound 1 µM, first compound 10 µM
# 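Further: spheroids exposed to agents for seven days before readout.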
compound,measurement,setting,value
CCN1CCN(Cc2ccc(Nc3ncc(F)c(-c4cc(F)c5nc(C)n(C(C)C)c5c4)n3)nc2)CC1 + C#Cc1c(F)ccc2cc(O)cc(-c3ncc4c(N5CC6CCC(C5)N6)nc(OCC56CCCN5CC(F)C6)nc4c3F)c12,IC50,[1],> 1000 nM
same,IC50,[2],> 1000 nM
same,IC50,[3],> 1000 nM
same,IC50,[4],27.1 nM
same,IC50,[5],< 3.16 nM
same,IC50,[6],< 3.16 nM
same,"viability, T/C","second compound 0.0316 µM, first compound 0.00316 µM",93.1%
same,"viability, T/C","second compound 0.0316 µM, first compound 0.01 µM",89%
same,"viability, T/C",[7],77.4%
same,"viability, T/C",[8],67.5%
same,"viability, T/C",[9],66.3%
same,"viability, T/C",[10],67.4%
same,"viability, T/C","second compound 0.1 µM, first compound 0.00316 µM",90.9%
same,"viability, T/C","second compound 0.1 µM, first compound 0.01 µM",80.5%
same,"viability, T/C",[11],72.3%
same,"viability, T/C",[12],61.7%
same,"viability, T/C",[13],57.4%
same,"viability, T/C",[14],70.7%
same,"viability, T/C","second compound 0.316 µM, first compound 0.00316 µM",92%
same,"viability, T/C","second compound 0.316 µM, first compound 0.01 µM",79.3%
same,"viability, T/C",[15],67.1%
same,"viability, T/C",[16],55.8%
same,"viability, T/C",[17],50.3%
same,"viability, T/C",[18],61%
same,"viability, T/C","second compound 1 µM, first compound 0.00316 µM",62%
same,"viability, T/C","second compound 1 µM, first compound 0.01 µM",54.7%
same,"viability, T/C",[19],49%
same,"viability, T/C",[20],44.5%
same,"viability, T/C",[21],45.2%
same,"viability, T/C",[22],53.5%
same,"viability, T/C","second compound 3.16 µM, first compound 0.00316 µM",39.5%
same,"viability, T/C","second compound 3.16 µM, first compound 0.01 µM",34.9%
same,"viability, T/C",[23],28.4%
same,"viability, T/C",[24],26.1%
same,"viability, T/C",[25],30.9%
same,"viability, T/C",[26],38.9%
same,"viability, T/C","second compound 10 µM, first compound 0.00316 µM",14.3%
same,"viability, T/C","second compound 10 µM, first compound 0.01 µM",15.6%
same,"viability, T/C",[27],14.1%
same,"viability, T/C",[28],19%
same,"viability, T/C",[29],22.1%
same,"viability, T/C",[30],22.2%
CCC(CC)c1cc(NC2CCC(N)C2)n2nccc2n1 (stereo not drawn),"viability, T/C",compound 0.0316 µM,106% and 116% (2×) and 92.8%
same,"viability, T/C",compound 0.1 µM,115% [middle of 4 runs]
same,"viability, T/C",compound 0.316 µM,122% [middle of 4 runs]
same,"viability, T/C",compound 1 µM,100% [middle of 4 runs]
same,"viability, T/C",compound 3.16 µM,3.47% [middle of 4 runs]
same,"viability, T/C",compound 10 µM,3.37% [middle of 4 runs]
same,IC50,curve of compound,1.82 µM [middle of 4 runs]
CC(Nc1ccc2c(c1)OCCn1cc(N3C(=O)OCC3C(F)F)nc1-2)C(N)=O (stereo not drawn) + C#Cc1c(F)ccc2cc(O)cc(-c3ncc4c(N5CC6CCC(C5)N6)nc(OCC56CCCN5CC(F)C6)nc4c3F)c12,IC50,[1],1170 nM
same,IC50,[2],1620 nM
same,IC50,[3],1190 nM
same,IC50,[4],472 nM
same,IC50,[5],< 31.6 nM
same,IC50,[6],< 31.6 nM
same,"viability, T/C",[7],84.4%
same,"viability, T/C",[8],93.5%
same,"viability, T/C",[9],63.5%
same,"viability, T/C",[10],50.1%
same,"viability, T/C",[31],47.6%
same,"viability, T/C",[32],29.1%
same,"viability, T/C",[11],90.3%
same,"viability, T/C",[12],86.2%
same,"viability, T/C",[13],69.5%
same,"viability, T/C",[14],56%
same,"viability, T/C",[33],42.5%
same,"viability, T/C",[34],28.2%
same,"viability, T/C",[15],84.9%
same,"viability, T/C",[16],86.7%
same,"viability, T/C",[17],65.3%
same,"viability, T/C",[18],53.2%
same,"viability, T/C",[35],38.5%
same,"viability, T/C",[36],28.4%
same,"viability, T/C",[19],71.6%
same,"viability, T/C",[20],62%
same,"viability, T/C",[21],50.9%
same,"viability, T/C",[22],46.1%
same,"viability, T/C",[37],34.3%
same,"viability, T/C",[38],23.2%
same,"viability, T/C",[23],33.2%
same,"viability, T/C",[24],26.4%
same,"viability, T/C",[25],26.5%
same,"viability, T/C",[26],26.9%
same,"viability, T/C","second compound 3.16 µM, first compound 3.16 µM",22.4%
same,"viability, T/C","second compound 3.16 µM, first compound 10 µM",12.8%
same,"viability, T/C",[27],16.3%
same,"viability, T/C",[28],15.2%
same,"viability, T/C",[29],11.7%
same,"viability, T/C",[30],6.87%
same,"viability, T/C","second compound 10 µM, first compound 3.16 µM",3.76%
same,"viability, T/C","second compound 10 µM, first compound 10 µM",1.56%
C[C@@H](NC(=O)c1ncnc(N)c1Cl)c1ncc(C(=O)Nc2cc(C(F)(F)F)c(Cl)cn2)s1 + C=CC(=O)N1CCN(c2nc(OCC3CCCN3C)nc3c(F)c(-c4nc(N)cc(C)c4C(F)(F)F)c(Cl)cc23)C(C)C1,IC50,"curve of first compound, second compound 0.00316 µM",< 31.6 nM
same,IC50,"curve of first compound, second compound 0.01 µM",< 31.6 nM
same,IC50,[1],< 31.6 nM
same,IC50,[2],< 31.6 nM
same,IC50,[3],< 31.6 nM
same,IC50,[4],< 31.6 nM
same,"viability, T/C","second compound 0.00316 µM, first compound 0.0316 µM",24.3%
same,"viability, T/C","second compound 0.00316 µM, first compound 0.1 µM",23.5%
same,"viability, T/C","second compound 0.00316 µM, first compound 0.316 µM",23.3%
same,"viability, T/C","second compound 0.00316 µM, first compound 1 µM",25.3%
same,"viability, T/C","second compound 0.00316 µM, first compound 3.16 µM",19%
same,"viability, T/C","second compound 0.00316 µM, first compound 10 µM",17.7%
same,"viability, T/C","second compound 0.01 µM, first compound 0.0316 µM",14.8%
same,"viability, T/C","second compound 0.01 µM, first compound 0.1 µM",14.6%
same,"viability, T/C","second compound 0.01 µM, first compound 0.316 µM",14.2%
same,"viability, T/C","second compound 0.01 µM, first compound 1 µM",14.6%
same,"viability, T/C","second compound 0.01 µM, first compound 3.16 µM",20%
same,"viability, T/C","second compound 0.01 µM, first compound 10 µM",14%
same,"viability, T/C",[7],12%
same,"viability, T/C",[8],11.7%
same,"viability, T/C",[9],10.3%
same,"viability, T/C",[10],10.8%
same,"viability, T/C",[31],11.4%
same,"viability, T/C",[32],10.2%
same,"viability, T/C",[11],13.1%
same,"viability, T/C",[12],10.6%
same,"viability, T/C",[13],14.1%
same,"viability, T/C",[14],10.8%
same,"viability, T/C",[33],9.5%
same,"viability, T/C",[34],9.83%
same,"viability, T/C",[15],10.6%
same,"viability, T/C",[16],11.1%
same,"viability, T/C",[17],10.8%
same,"viability, T/C",[18],10.8%
same,"viability, T/C",[35],10.5%
same,"viability, T/C",[36],10.7%
same,"viability, T/C",[19],10.6%
same,"viability, T/C",[20],13%
same,"viability, T/C",[21],13.4%
same,"viability, T/C",[22],11.6%
same,"viability, T/C",[37],10.8%
same,"viability, T/C",[38],11.1%
